Read-outs that look alike come from different tables or passages of the source.
Test system: patients with primary aldosteronism
Method: A double-blind, randomized, Phase 2 trial was conducted between November 2019 and June 2022 at 11 centres in Italy, Switzerland and the Netherlands (NCT04007406). […] Patients requiring fixed-dose antihypertensive therapy continued treatment throughout the study; steroid therapies, β-adrenergic and renin-angiotensin-aldosterone system blockers were not permitted. At 14-day intervals, office blood pressures were recorded and blood samples were taken for measurement of steroid and peptide hormones and electrolytes at a central laboratory.

[1] = 4 mg once daily, n=10, Day 1 (baseline)
[2] = 4 mg once daily, n=10, Day 70 (after placebo withdrawal)
[3] = 8 mg once daily, n=11, Day 1 (baseline)
[4] = 8 mg once daily, n=11, Day 70 (after placebo withdrawal)

Question: “(R)-(+)-5-(p-cyanophenyl)-5,6,7,8-tetrahydroimidazolium[1,5-a]pyridine dihydrogen phosphate [dexfadrostat phosphate]” was tested. Which “plasma potassium, mean” value [1] did it give?
Answer: 3.36 nmol/L

Question: What about the “plasma potassium, median” value [1] of the same substance?
Answer: 3.35 nmol/L

Question: And the “plasma potassium, mean” value (4 mg once daily, n=10, Day 14)?
Answer: 4.27 nmol/L

Question: What about the “plasma potassium, median” value (4 mg once daily, n=10, Day 14) of the same substance?
Answer: 4.35 nmol/L

Question: And the “plasma potassium, mean” value (4 mg once daily, n=10, Day 28)?
Answer: 3.85 nmol/L

Question: And the “plasma potassium, median” value (4 mg once daily, n=10, Day 28)?
Answer: 3.85 nmol/L

Question: What about the “plasma potassium, mean” value (4 mg once daily, n=10, Day 42) of the same substance?
Answer: 4.07 nmol/L

Question: And the “plasma potassium, median” value (4 mg once daily, n=10, Day 42)?
Answer: 4.15 nmol/L

Question: What about the “plasma potassium, mean” value (4 mg once daily, n=10, Day 56) of the same substance?
Answer: 4.10 nmol/L

Question: And the “plasma potassium, median” value (4 mg once daily, n=10, Day 56)?
Answer: 4.20 nmol/L

Question: What about the “plasma potassium, mean” value [2] of the same substance?
Answer: 3.58 nmol/L

Question: And the “plasma potassium, median” value [2]?
Answer: 3.60 nmol/L

Question: And the “plasma potassium, mean” value [3]?
Answer: 3.55 nmol/L

Question: What about the “plasma potassium, median” value [3] of the same substance?
Answer: 3.50 nmol/L

Question: And the “plasma potassium, mean” value (8 mg once daily, n=11, Day 14)?
Answer: 4.32 nmol/L

Question: And the “plasma potassium, median” value (8 mg once daily, n=11, Day 14)?
Answer: 4.30 nmol/L

Question: And the “plasma potassium, mean” value (8 mg once daily, n=11, Day 28)?
Answer: 4.04 nmol/L

Question: And the “plasma potassium, median” value (8 mg once daily, n=11, Day 28)?
Answer: 4.00 nmol/L

Question: And the “plasma potassium, mean” value (8 mg once daily, n=11, Day 42)?
Answer: 3.99 nmol/L

Question: And the “plasma potassium, median” value (8 mg once daily, n=11, Day 42)?
Answer: 3.90 nmol/L

Question: And the “plasma potassium, mean” value (8 mg once daily, n=11, Day 56)?
Answer: 4.10 nmol/L

Question: And the “plasma potassium, median” value (8 mg once daily, n=11, Day 56)?
Answer: 4.10 nmol/L

Question: What about the “plasma potassium, mean” value [4] of the same substance?
Answer: 3.76 nmol/L

Question: And the “plasma potassium, median” value [4]?
Answer: 3.80 nmol/L

Question: What about the “plasma potassium upon drug withdrawal” value (Day 70, after 14-day placebo withdrawal) of the same substance?
Answer: potassium values returned towards baseline levels

Question: What about the “plasma potassium concentration, mean” value (baseline potassium <3.6 mmol/L, 4 mg QD, Day 1 (baseline)) of the same substance?
Answer: 3.1 mmol/L

Question: What about the “plasma potassium concentration, mean” value (baseline potassium <3.6 mmol/L, 4 mg QD, Day 14) of the same substance?
Answer: 4.1 mmol/L

Question: And the “plasma potassium concentration, mean” value (baseline potassium <3.6 mmol/L, 4 mg QD, Day 28)?
Answer: 3.8 mmol/L

Question: What about the “plasma potassium concentration, mean” value (baseline potassium <3.6 mmol/L, 4 mg QD, Day 42) of the same substance?
Answer: 3.9 mmol/L

Question: What about the “plasma potassium concentration, mean” value (baseline potassium <3.6 mmol/L, 4 mg QD, Day 56) of the same substance?
Answer: 4.0 mmol/L

Question: And the “plasma potassium concentration, mean” value (baseline potassium <3.6 mmol/L, 4 mg QD, Day 70 (placebo withdrawal))?
Answer: 3.3 mmol/L

Question: And the “plasma potassium concentration, mean” value (baseline potassium <3.6 mmol/L, 8 mg QD, Day 1 (baseline))?
Answer: 3.3 mmol/L

Question: What about the “plasma potassium concentration, mean” value (baseline potassium <3.6 mmol/L, 8 mg QD, Day 14) of the same substance?
Answer: 4.2 mmol/L

Question: And the “plasma potassium concentration, mean” value (baseline potassium <3.6 mmol/L, 8 mg QD, Day 28)?
Answer: 3.9 mmol/L

Question: And the “plasma potassium concentration, mean” value (baseline potassium <3.6 mmol/L, 8 mg QD, Day 42)?
Answer: 4.0 mmol/L

Question: And the “plasma potassium concentration, mean” value (baseline potassium <3.6 mmol/L, 8 mg QD, Day 56)?
Answer: 4.0 mmol/L

Question: And the “plasma potassium concentration, mean” value (baseline potassium <3.6 mmol/L, 8 mg QD, Day 70 (placebo withdrawal))?
Answer: 3.7 mmol/L

Question: What about the “plasma potassium concentration, mean” value (baseline potassium <3.6 mmol/L, 12 mg QD, Day 1 (baseline)) of the same substance?
Answer: 3.3 mmol/L

Question: What about the “plasma potassium concentration, mean” value (baseline potassium <3.6 mmol/L, 12 mg QD, Day 14) of the same substance?
Answer: 3.9 mmol/L

Question: And the “plasma potassium concentration, mean” value (baseline potassium <3.6 mmol/L, 12 mg QD, Day 28)?
Answer: 4.0 mmol/L

Question: And the “plasma potassium concentration, mean” value (baseline potassium <3.6 mmol/L, 12 mg QD, Day 42)?
Answer: 4.1 mmol/L

Question: What about the “plasma potassium concentration, mean” value (baseline potassium <3.6 mmol/L, 12 mg QD, Day 56) of the same substance?
Answer: 3.8 mmol/L

Question: And the “plasma potassium concentration, mean” value (baseline potassium <3.6 mmol/L, 12 mg QD, Day 70 (placebo withdrawal))?
Answer: 3.7 mmol/L

Question: And the “plasma potassium concentration, mean” value (baseline potassium ≤3.0 mmol/L, all doses QD, Day 1 (baseline))?
Answer: 2.9 mmol/L

Question: And the “plasma potassium concentration, mean” value (baseline potassium ≤3.0 mmol/L, all doses QD, Day 14)?
Answer: 3.9 mmol/L

Question: What about the “plasma potassium concentration, mean” value (baseline potassium ≤3.0 mmol/L, all doses QD, Day 28) of the same substance?
Answer: 3.9 mmol/L

Question: What about the “plasma potassium concentration, mean” value (baseline potassium ≤3.0 mmol/L, all doses QD, Day 42) of the same substance?
Answer: 4.0 mmol/L

Question: And the “plasma potassium concentration, mean” value (baseline potassium ≤3.0 mmol/L, all doses QD, Day 56)?
Answer: 3.9 mmol/L

Question: What about the “plasma potassium concentration, mean” value (baseline potassium ≤3.0 mmol/L, all doses QD, Day 70 (placebo withdrawal)) of the same substance?
Answer: 3.5 mmol/L

Question: What about the “plasma potassium concentration, mean” value (baseline potassium ≥3.6 mmol/L, 4 mg QD, Day 1 (baseline)) of the same substance?
Answer: 3.8 mmol/L

Question: What about the “plasma potassium concentration, mean” value (baseline potassium ≥3.6 mmol/L, 4 mg QD, Day 14) of the same substance?
Answer: 4.6 mmol/L

Question: And the “plasma potassium concentration, mean” value (baseline potassium ≥3.6 mmol/L, 4 mg QD, Day 28)?
Answer: 4.0 mmol/L

Question: And the “plasma potassium concentration, mean” value (baseline potassium ≥3.6 mmol/L, 4 mg QD, Day 42)?
Answer: 4.3 mmol/L

Question: And the “plasma potassium concentration, mean” value (baseline potassium ≥3.6 mmol/L, 4 mg QD, Day 56)?
Answer: 4.3 mmol/L

Question: What about the “plasma potassium concentration, mean” value (baseline potassium ≥3.6 mmol/L, 4 mg QD, Day 70 (placebo withdrawal)) of the same substance?
Answer: 4.0 mmol/L

Question: What about the “plasma potassium concentration, mean” value (baseline potassium ≥3.6 mmol/L, 8 mg QD, Day 1 (baseline)) of the same substance?
Answer: 3.8 mmol/L

Question: And the “plasma potassium concentration, mean” value (baseline potassium ≥3.6 mmol/L, 8 mg QD, Day 14)?
Answer: 4.3 mmol/L

Question: What about the “plasma potassium concentration, mean” value (baseline potassium ≥3.6 mmol/L, 8 mg QD, Day 28) of the same substance?
Answer: 4.1 mmol/L

Question: And the “plasma potassium concentration, mean” value (baseline potassium ≥3.6 mmol/L, 8 mg QD, Day 42)?
Answer: 3.9 mmol/L

Question: And the “plasma potassium concentration, mean” value (baseline potassium ≥3.6 mmol/L, 8 mg QD, Day 56)?
Answer: 4.1 mmol/L
